Target: T1, human P2X4 (Homo sapiens, UniProt Q99571)
T1 sequence (Q99571 1-388): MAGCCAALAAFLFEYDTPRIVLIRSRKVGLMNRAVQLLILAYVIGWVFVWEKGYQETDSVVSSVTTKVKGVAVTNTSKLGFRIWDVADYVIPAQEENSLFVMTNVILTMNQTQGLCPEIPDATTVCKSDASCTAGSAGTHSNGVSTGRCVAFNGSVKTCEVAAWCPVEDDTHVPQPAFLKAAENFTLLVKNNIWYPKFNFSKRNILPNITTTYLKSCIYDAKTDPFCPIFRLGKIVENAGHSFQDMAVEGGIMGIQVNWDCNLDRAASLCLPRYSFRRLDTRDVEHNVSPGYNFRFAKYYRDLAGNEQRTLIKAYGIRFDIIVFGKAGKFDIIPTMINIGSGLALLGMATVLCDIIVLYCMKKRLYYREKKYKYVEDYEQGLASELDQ
Assay: Human P2X4 HEK Cell FLIPR Assay
Assay type: cell-based
Settings: agonist Bz-ATP at EC80; for Emax: HEK293, HEK293 cells, percentage of maximal inhibition, read-out: Human P2X4 HEK Cells (FLIPR Assay) avg Efficacy [%]; for IC50: HEK293 cells, individual values listed where some fall outside detection range
Procedure: HEK293 cells stably expressing human P2X4 were plated in poly-D-lysine-coated 384-well plates at a seeding density of 30000 cells/well and incubated overnight. P2X4 function was assessed by measuring intracellular calcium changes using the calcium-chelating dye Fluo8-AM (Molecular Devices) on a fluorescent imaging plate reader (FLEX/FLIPR station; Molecular Devices). On the day of the assay, the medium was removed and the cells were incubated for 30 min at 37° C. and 5% CO2 in 30 μL of dye buffer (Hank's balanced salt solution, 10 mM HEPES, 1.8 mM CaCl2, 1 mM MgCl2, 2 mM probenecid, 5 mM D-glucose monohydrate, 5 μM Fluo8-AM, pH=7.4). Compounds diluted in probenecid buffer (Hank's balanced salt solution, 10 mM HEPES, 1.8 mM CaCl2, 1 mM MgCl2, 2 mM probenecid, 5 mM D-glucose monohydrate, pH=7.4) were added in a volume of 10 μL and allowed to incubate for 30 min at room temperature. The final assay DMSO concentration was 0.5%. The agonist, Bz-ATP (Tocris), was added in a volume of 10 μL at a concentration representing the EC80 value. The EC80 value of Bz-ATP was determined each assay day prior to compound profiling. The fluorescence was measured for an interval of 120 sec at 2 sec intervals. The excitation and emission wavelengths used to monitor fluorescence were 470-495 nm and 515-575 nm, respectively. The data was analyzed based on the increase in peak relative fluorescence units (RFU) compared to the basal fluorescence and the data was normalized to the agonist control. The compounds were tested in triplicates per plate and mean values were plotted in Excel XLFit to determine IC50 values, percentage of maximal inhibition and the Hill coefficients.

SMILES	Emax	IC50
CC(C)(O)c1cnn(-c2ccc(NC(=O)Cc3ccccc3F)cc2S(N)(=O)=O)c1 [Example 237, 2-(2-Fluorophenyl)-N-{4-[4-(2-hydroxypropan-2-yl)-1H-pyrazol-1-yl]-3-sulfamoyl-phenyl}acetamide]	72%	1890 nM
Cc1cccc(CC(=O)Nc2ccc(-n3cc(Cl)cn3)c(S(N)(=O)=O)c2)c1 [Example 174, N-[4-(4-Chloro-1H-pyrazol-1-yl)-3-sulfamoylphenyl]-2-(3-methylphenyl)acetamide]	79%	45 nM
NS(=O)(=O)c1cc(NC(=O)Cc2cccc(Cl)c2)ccc1-c1ccccc1 [Example 272, 2-(3-Chlorophenyl)-N-(2-sulfamoylbiphenyl-4-yl)acetamide]	90%	507 nM
NS(=O)(=O)c1cc(NC(=O)Cc2ccc(Cl)cc2Cl)ccc1-c1cncc(C(F)(F)F)c1 [Example 448, 2-(2,4-Dichlorophenyl)-N-{3-sulfamoyl-4-[5-(trifluoromethyl)pyridin-3-yl]phenyl}acetamide]	63%	472 nM
NS(=O)(=O)c1cc(NC(=O)Cc2cccc(F)c2F)ccc1-n1cc(F)cn1 [Example 155, 2-(2,3-Difluorophenyl)-N-[4-(4-fluoro-1H-pyrazol-1-yl)-3-sulfamoylphenyl]acetamide]	86%	108 nM
NS(=O)(=O)c1cc(NC(=O)Cc2ccccc2Cl)ccc1-n1cc(C(=O)N2CC(F)(F)C2)cn1 [Example 440, 2-(2-Chlorophenyl)-N-(4-{4-[(3,3-difluoroazetidin-1-yl)carbonyl]-1H-pyrazol-1-yl}-3-sulfamoylphenyl)acetamide]	96%	112 nM
NS(=O)(=O)c1cc(NC(=O)Cc2ccccc2F)ccc1-n1cc(F)cn1 [Example 48, 2-(2-Fluorophenyl)-N-[4-(4-fluoro-1H-pyrazol-1-yl)-3-sulfamoylphenyl]acetamide]	82%	297 nM
NS(=O)(=O)c1cc(NC(=O)Cc2ccccc2Cl)ccc1-c1cnn(CCO)c1 [Example 291, 2-(2-Chlorophenyl)-N-{4-[1-(2-hydroxyethyl)-1H-pyrazol-4-yl]-3-sulfamoylphenyl}acetamide]	95%	100 nM
NS(=O)(=O)c1cc(NC(=O)Cc2ccccc2Cl)ccc1-c1cnc(C2CC2)s1 [Example 430, 2-(2-Chlorophenyl)-N-[4-(2-cyclopropyl-1,3-thiazol-5-yl)-3-sulfamoylphenyl]acetamide]	87%	86 nM
Cc1nn(C)cc1-c1ccc(NC(=O)Cc2ccccc2Cl)cc1S(N)(=O)=O [Example 358, 2-(2-Chlorophenyl)-N-[4-(1,3-dimethyl-1H-pyrazol-4-yl)-3-sulfamoylphenyl]acetamide]	88%	74 nM
NS(=O)(=O)c1cc(NC(=O)Cc2ccc(Cl)cc2Cl)ccc1-c1ccc(Cl)nc1 [Example 465, N-[4-(6-Chloropyridin-3-yl)-3-sulfamoylphenyl]-2-(2,4-dichlorophenyl)acetamide]	92%	26 nM
NS(=O)(=O)c1cc(NC(=O)Cc2ccccc2OC(F)(F)F)ccc1-c1cncc(C(F)(F)F)c1 [Example 222, N-{3-Sulfamoyl-4-[5-(trifluoromethyl)pyridin-3-yl]phenyl}-2-[2-(trifluoromethoxy)-phenyl]acetamide]	83%	92 nM
NS(=O)(=O)c1cc(NC(=O)Cc2ccccc2Cl)ccc1-n1ccnc1 [Example 9, 2-(2-Chlorophenyl)-N-[4-(1H-imidazol-1-yl)-3-sulfamoylphenyl]acetamide]	83%	7 nM
N#Cc1cnn(-c2ccc(NC(=O)Cc3ccccc3C(F)(F)F)cc2S(N)(=O)=O)c1 [Example 184, N-[4-(4-Cyano-1H-pyrazol-1-yl)-3-sulfamoylphenyl]-2-[2-(trifluoromethyl)-phenyl]acetamide]	96%	67 nM

Reference: patent publication US11524938B2, “Aromatic sulfonamide derivatives” (Bayer Pharma Aktiengesellschaft, priority 2016, dated 2022)
